Experimental data reported in PubChem BioAssay (NCI).
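Where inhibition never reached the appropriate level, the endpoint shown equals the highest concentration tested. Otherwise, values were interpolated linearly from a five-concentration, 48-hour dose response in 96-well plates. At the GI50, growth is halved. TGI is the concentration that stops growth completely.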

How the values were obtained:
Assay in all cases: DTP human tumour cell line panel, 48 h
CAKI-1 renal = tested on: CAKI-1 renal
COLO 205 colon = tested on: COLO 205 colon
NCI-H460 lung = tested on: NCI-H460 lung
SK-MEL-28 melanoma = tested on: SK-MEL-28 melanoma
TK-10 renal = tested on: TK-10 renal
OVCAR-4 ovarian = tested on: OVCAR-4 ovarian
MOLT-4 leukemia = tested on: MOLT-4 leukemia
RPMI-8226 leukemia = tested on: RPMI-8226 leukemia
MDA-MB-435 = tested on: MDA-MB-435
HCC-2998 colon = tested on: HCC-2998 colon
SNB-19 CNS = tested on: SNB-19 CNS
786-0 renal = tested on: 786-0 renal
SF-268 CNS = tested on: SF-268 CNS
DU-145 prostate = tested on: DU-145 prostate
U251 CNS = tested on: U251 CNS
MDA-MB-231 breast = tested on: MDA-MB-231 breast
T-47D breast = tested on: T-47D breast
EKVX NSCLC = tested on: EKVX NSCLC
OVCAR-8 ovarian = tested on: OVCAR-8 ovarian
OVCAR-3 ovarian = tested on: OVCAR-3 ovarian
HCT-15 colon = tested on: HCT-15 colon
ACHN renal = tested on: ACHN renal
CCRF-CEM leukemia = tested on: CCRF-CEM leukemia
RXF 393 renal = tested on: RXF 393 renal
OVCAR-5 ovarian = tested on: OVCAR-5 ovarian
HOP-62 NSCLC = tested on: HOP-62 NSCLC
HCT-116 colon = tested on: HCT-116 colon
SNB-75 CNS = tested on: SNB-75 CNS
SN12C renal = tested on: SN12C renal
NCI/ADR-RES ovarian = tested on: NCI/ADR-RES ovarian
SK-MEL-2 melanoma = tested on: SK-MEL-2 melanoma
MDA-MB-468 breast = tested on: MDA-MB-468 breast
A498 renal = tested on: A498 renal
SF-295 CNS = tested on: SF-295 CNS
SW-620 colon = tested on: SW-620 colon
HL-60(TB) leukemia = tested on: HL-60(TB) leukemia
LOX IMVI melanoma = tested on: LOX IMVI melanoma
BT-549 breast = tested on: BT-549 breast
UACC-257 melanoma = tested on: UACC-257 melanoma
HOP-92 NSCLC = tested on: HOP-92 NSCLC
A549 NSCLC = tested on: A549 NSCLC
MALME-3M melanoma = tested on: MALME-3M melanoma
PC-3 prostate = tested on: PC-3 prostate
KM12 colon = tested on: KM12 colon
MCF7 breast = tested on: MCF7 breast
HT29 colon = tested on: HT29 colon
UO-31 renal = tested on: UO-31 renal
NCI-H522 lung = tested on: NCI-H522 lung
HS 578T breast = tested on: HS 578T breast
NCI-H226 lung = tested on: NCI-H226 lung
NCI-H23 lung = tested on: NCI-H23 lung
SK-OV-3 ovarian = tested on: SK-OV-3 ovarian
M14 melanoma = tested on: M14 melanoma
SF-539 CNS = tested on: SF-539 CNS
IGROV1 ovarian = tested on: IGROV1 ovarian
K-562 leukemia = tested on: K-562 leukemia
SK-MEL-5 melanoma = tested on: SK-MEL-5 melanoma
SR leukemia = tested on: SR leukemia
UACC-62 melanoma = tested on: UACC-62 melanoma

For `O=C(Nc1ccc(Cl)c(C(F)(F)F)c1)c1cncc(C#Cc2cnc3ccc(N4CCOCC4)nn23)c1`, the GI50 (CAKI-1 renal) was 2070 nM, the TGI (CAKI-1 renal) was 11100 nM and the GI50 (COLO 205 colon) was 1170 nM. The TGI (COLO 205 colon) was 9920 nM, the GI50 (NCI-H460 lung) was 2670 nM and the TGI (NCI-H460 lung) was 19100 nM. It also gave a GI50 (SK-MEL-28 melanoma) of 1240 nM, a TGI (SK-MEL-28 melanoma) of 7050 nM and a GI50 (TK-10 renal) of 2060 nM. For the same compound, the TGI (TK-10 renal) was 30900 nM, the GI50 (OVCAR-4 ovarian) was 3800 nM and the TGI (OVCAR-4 ovarian) was > 81000 nM. It also gave a GI50 (MOLT-4 leukemia) of 1590 nM, a TGI (MOLT-4 leukemia) of 4770 nM and a GI50 (RPMI-8226 leukemia) of 2420 nM. For the same compound, the TGI (RPMI-8226 leukemia) was > 81000 nM, the GI50 (MDA-MB-435) was 1440 nM and the TGI (MDA-MB-435) was > 81000 nM. The GI50 (HCC-2998 colon) was 2060 nM, the TGI (HCC-2998 colon) was 15200 nM and the GI50 (SNB-19 CNS) was 2620 nM. It also gave a TGI (SNB-19 CNS) of 7930 nM, a GI50 (786-0 renal) of 2680 nM and a TGI (786-0 renal) of 11800 nM. The GI50 (SF-268 CNS) was 2180 nM, the TGI (SF-268 CNS) was 31500 nM and the GI50 (DU-145 prostate) was 2860 nM. For the same compound, the TGI (DU-145 prostate) was > 81000 nM, the GI50 (U251 CNS) was 3620 nM and the TGI (U251 CNS) was > 81000 nM. For the same compound, the GI50 (MDA-MB-231 breast) was 321 nM, the TGI (MDA-MB-231 breast) was 3100 nM and the GI50 (T-47D breast) was 1890 nM. It also gave a TGI (T-47D breast) of 17400 nM, a GI50 (EKVX NSCLC) of 2120 nM and a TGI (EKVX NSCLC) of 21200 nM. For the same compound, the GI50 (OVCAR-8 ovarian) was 2500 nM, the TGI (OVCAR-8 ovarian) was 19400 nM and the GI50 (OVCAR-3 ovarian) was 3930 nM. The TGI (OVCAR-3 ovarian) was > 81000 nM, the GI50 (HCT-15 colon) was 2550 nM and the TGI (HCT-15 colon) was > 81000 nM. It also gave a GI50 (ACHN renal) of 1540 nM, a TGI (ACHN renal) of 10300 nM and a GI50 (CCRF-CEM leukemia) of 2580 nM. The TGI (CCRF-CEM leukemia) was > 81000 nM, the GI50 (RXF 393 renal) was 818 nM and the TGI (RXF 393 renal) was 2870 nM. For the same compound, the GI50 (OVCAR-5 ovarian) was 883 nM, the TGI (OVCAR-5 ovarian) was 18700 nM and the GI50 (HOP-62 NSCLC) was 912 nM. The TGI (HOP-62 NSCLC) was 9900 nM, the GI50 (HCT-116 colon) was 356 nM and the TGI (HCT-116 colon) was 3110 nM. The GI50 (SNB-75 CNS) was 1150 nM, the TGI (SNB-75 CNS) was 4590 nM and the GI50 (SN12C renal) was 749 nM. For the same compound, the TGI (SN12C renal) was > 81000 nM, the GI50 (NCI/ADR-RES ovarian) was 2450 nM and the TGI (NCI/ADR-RES ovarian) was 15000 nM. The GI50 (SK-MEL-2 melanoma) was 1310 nM, the TGI (SK-MEL-2 melanoma) was 3230 nM and the GI50 (MDA-MB-468 breast) was 2540 nM. For the same compound, the TGI (MDA-MB-468 breast) was 14200 nM, the GI50 (A498 renal) was 1980 nM and the TGI (A498 renal) was 6820 nM. For the same compound, the GI50 (SF-295 CNS) was 2650 nM, the TGI (SF-295 CNS) was 33900 nM and the GI50 (SW-620 colon) was 1650 nM. The TGI (SW-620 colon) was > 81000 nM, the GI50 (HL-60(TB) leukemia) was 256 nM and the TGI (HL-60(TB) leukemia) was 3870 nM. The GI50 (LOX IMVI melanoma) was 812 nM, the TGI (LOX IMVI melanoma) was 4350 nM and the GI50 (BT-549 breast) was 1430 nM. It also gave a TGI (BT-549 breast) of 6620 nM, a GI50 (UACC-257 melanoma) of 2120 nM and a TGI (UACC-257 melanoma) of 21400 nM. For the same compound, the GI50 (HOP-92 NSCLC) was 255 nM, the TGI (HOP-92 NSCLC) was 1550 nM and the GI50 (A549 NSCLC) was 2150 nM. For the same compound, the TGI (A549 NSCLC) was > 81000 nM, the GI50 (MALME-3M melanoma) was 854 nM and the TGI (MALME-3M melanoma) was 5620 nM. The GI50 (PC-3 prostate) was 2510 nM, the TGI (PC-3 prostate) was 24400 nM and the GI50 (KM12 colon) was 8.1 nM. For the same compound, the TGI (KM12 colon) was 46400 nM, the GI50 (MCF7 breast) was 1910 nM and the TGI (MCF7 breast) was 15400 nM. For the same compound, the GI50 (HT29 colon) was 1000 nM, the TGI (HT29 colon) was 11100 nM and the GI50 (UO-31 renal) was 562 nM. For the same compound, the TGI (UO-31 renal) was 6240 nM, the GI50 (NCI-H522 lung) was 1600 nM and the TGI (NCI-H522 lung) was 7490 nM. It also gave a GI50 (HS 578T breast) of 809 nM, a TGI (HS 578T breast) of 4150 nM and a GI50 (NCI-H226 lung) of 361 nM. The TGI (NCI-H226 lung) was 12500 nM, the GI50 (NCI-H23 lung) was 842 nM and the TGI (NCI-H23 lung) was 5330 nM. It also gave a GI50 (SK-OV-3 ovarian) of 2590 nM, a TGI (SK-OV-3 ovarian) of 11500 nM and a GI50 (M14 melanoma) of 717 nM. It also gave a TGI (M14 melanoma) of 3010 nM, a GI50 (SF-539 CNS) of 160 nM and a TGI (SF-539 CNS) of 1640 nM. For the same compound, the GI50 (IGROV1 ovarian) was 579 nM, the TGI (IGROV1 ovarian) was 4960 nM and the GI50 (K-562 leukemia) was 728 nM. For the same compound, the TGI (K-562 leukemia) was > 81000 nM, the GI50 (SK-MEL-5 melanoma) was 2070 nM and the TGI (SK-MEL-5 melanoma) was 7780 nM. The GI50 (SR leukemia) was 1410 nM, the TGI (SR leukemia) was > 81000 nM and the GI50 (UACC-62 melanoma) was 785 nM. For the same compound, the TGI (UACC-62 melanoma) was 3630 nM.
